Experimental data reported in ChEMBL document CHEMBL3774360, “Potent multitarget FAAH-COX inhibitors: Design and structure-activity relationship studies” (Eur J Med Chem, 2016).
Activity calls are given as the source filed them. No cut-off for these calls is given here.

Legend:
[1] = molecular target: Sodium/potassium-transporting ATPase (Homo sapiens) (UniProt P05023+P14415+P05026+P50993+P54709+P13637+Q13733+P54710); assay: Binding affinity to sodium/potassium-transporting ATPase (unknown origin) at 10 uM; type: protein-complex assay
[2] = molecular target: T1, Prostaglandin G/H synthase 1 (Ovis aries, UniProt P05979); assay: Inhibition of ovine COX1 assessed as production of PGF2-alpha preincubated with compound followed by the addition of 5 uM arachidonic acid as substrate by enzyme immunoassay
T1 sequence (P05979 whole entry): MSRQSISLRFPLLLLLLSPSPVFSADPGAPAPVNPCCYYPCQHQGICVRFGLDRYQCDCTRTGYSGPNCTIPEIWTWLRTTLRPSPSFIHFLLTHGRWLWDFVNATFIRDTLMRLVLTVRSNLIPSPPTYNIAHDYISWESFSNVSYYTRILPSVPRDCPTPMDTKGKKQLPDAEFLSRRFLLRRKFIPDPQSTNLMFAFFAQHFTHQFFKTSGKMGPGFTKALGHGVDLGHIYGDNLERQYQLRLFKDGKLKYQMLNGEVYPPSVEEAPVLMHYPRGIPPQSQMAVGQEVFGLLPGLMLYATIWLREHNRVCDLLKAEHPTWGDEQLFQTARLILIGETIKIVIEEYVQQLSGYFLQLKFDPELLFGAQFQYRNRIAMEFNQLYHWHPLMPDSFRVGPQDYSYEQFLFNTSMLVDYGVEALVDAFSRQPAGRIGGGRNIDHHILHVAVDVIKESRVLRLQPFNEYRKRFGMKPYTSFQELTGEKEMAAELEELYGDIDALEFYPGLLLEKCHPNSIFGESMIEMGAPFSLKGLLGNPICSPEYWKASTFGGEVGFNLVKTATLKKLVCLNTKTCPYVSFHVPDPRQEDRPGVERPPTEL

[3] = molecular target: Calcitonin gene-related peptide 1 (Homo sapiens) (UniProt P06881); assay: Binding affinity to CGRP1 (unknown origin) at 10 uM
[4] = molecular target: Melatonin receptor type 1A (Homo sapiens) (UniProt P48039); assay: Binding affinity to human melatonin receptor type 1 at 10 uM by radioligand binding assay
[5] = molecular target: Type-2 angiotensin II receptor (Homo sapiens) (UniProt P50052); assay: Binding affinity to human angiotensin receptor 2 at 10 uM by radioligand binding assay
Homo sapiens [6] = species: Homo sapiens; assay: Binding affinity to L-type calcium channel dihydropyridine binding site (unknown origin) at 10 uM by radioligand binding assay
[7] = molecular target: Transmembrane domain-containing protein TMIGD3 (Homo sapiens) (UniProt P0DMS9); assay: Binding affinity to human adenosine A3 receptor at 10 uM by radioligand binding assay
Homo sapiens [8] = species: Homo sapiens; assay: Binding affinity to human sigma receptor at 10 uM by radioligand binding assay
[9] = molecular target: Polyunsaturated fatty acid 5-lipoxygenase (Homo sapiens) (UniProt P09917); assay: Binding affinity to human 5-lipoxygenase at 10 uM
[10] = molecular target: M-phase inducer phosphatase 1 (Homo sapiens) (UniProt P30304); assay: Binding affinity to CDC25A (unknown origin) at 10 uM
[11] = molecular target: Histamine H2 receptor (Homo sapiens) (UniProt P25021); assay: Binding affinity to human histamine H2 receptor at 10 uM by radioligand binding assay
[12] = molecular target: Leukotriene B4 receptor (Homo sapiens) (UniProt Q9NPC1+Q15722); assay: Binding affinity to human leukotriene B4 receptor at 10 uM by radioligand binding assay; type: protein assay
[13] = molecular target: Histamine H3 receptor (Homo sapiens) (UniProt Q9Y5N1); assay: Binding affinity to human histamine H3 receptor at 10 uM by radioligand binding assay
Mus musculus = assay: In-vivo inhibition of COX in mouse plasma assessed as decrease in TXA2 level at 1 mg/kg, iv after 1 hr by LC-MS/MS analysis; type: functional, organism-based
[14] = molecular target: cGMP-dependent 3',5'-cyclic phosphodiesterase (Homo sapiens) (UniProt O00408); assay: Binding affinity to human PDE2A1 at 10 uM
Homo sapiens [15] = species: Homo sapiens; assay: Activation of human guanylyl cyclase at 10 uM
[16] = molecular target: Prostaglandin E2 receptor EP1 subtype (Homo sapiens) (UniProt P34995); assay: Binding affinity to human EP1 receptor at 10 uM by radioligand binding assay
[17] = molecular target: D(2) dopamine receptor (Homo sapiens) (UniProt P14416); assay: Binding affinity to human dopamine D2S receptor at 10 uM by radioligand binding assay
[18] = molecular target: Prostaglandin E2 receptor EP3 subtype (Homo sapiens) (UniProt P43115); assay: Binding affinity to human EP3 receptor at 10 uM by radioligand binding assay
[19] = molecular target: Sodium-dependent noradrenaline transporter (Homo sapiens) (UniProt P23975); assay: Binding affinity to human norepinephrine transporter at 10 uM by radioligand binding assay
[20] = molecular target: Histone deacetylase 11 (Homo sapiens) (UniProt Q96DB2); assay: Binding affinity to human HDAC11 at 10 uM
[21] = molecular target: D(3) dopamine receptor (Homo sapiens) (UniProt P35462); assay: Binding affinity to human dopamine D3 receptor at 10 uM by radioligand binding assay
[22] = molecular target: Estrogen receptor (Homo sapiens) (UniProt P03372); assay: Binding affinity to human estrogen receptor at 10 uM by radioligand binding assay
Homo sapiens [23] = species: Homo sapiens; assay: Binding affinity to L-type calcium channel verapamil binding site (unknown origin) at 10 uM by radioligand binding assay
Homo sapiens [24] = species: Homo sapiens; assay: Binding affinity to ATP-sensitive potassium channel (unknown origin) at 10 uM by radioligand binding assay
[25] = molecular target: Adenosine receptor A1 (Homo sapiens) (UniProt P30542); assay: Binding affinity to human adenosine A1 receptor at 10 uM by radioligand binding assay
Chain of Adenosine receptor A1 (Homo sapiens) (P30542 whole entry): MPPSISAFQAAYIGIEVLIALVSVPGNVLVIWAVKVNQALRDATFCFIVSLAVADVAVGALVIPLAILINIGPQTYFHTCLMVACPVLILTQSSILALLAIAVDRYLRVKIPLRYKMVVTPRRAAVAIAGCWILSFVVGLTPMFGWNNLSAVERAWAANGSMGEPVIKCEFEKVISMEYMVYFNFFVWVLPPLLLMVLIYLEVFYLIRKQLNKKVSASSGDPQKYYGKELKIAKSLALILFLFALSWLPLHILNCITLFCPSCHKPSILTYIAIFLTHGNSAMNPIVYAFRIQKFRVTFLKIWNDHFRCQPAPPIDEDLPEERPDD

Chain of Melatonin receptor type 1A (Homo sapiens) (P48039 whole entry): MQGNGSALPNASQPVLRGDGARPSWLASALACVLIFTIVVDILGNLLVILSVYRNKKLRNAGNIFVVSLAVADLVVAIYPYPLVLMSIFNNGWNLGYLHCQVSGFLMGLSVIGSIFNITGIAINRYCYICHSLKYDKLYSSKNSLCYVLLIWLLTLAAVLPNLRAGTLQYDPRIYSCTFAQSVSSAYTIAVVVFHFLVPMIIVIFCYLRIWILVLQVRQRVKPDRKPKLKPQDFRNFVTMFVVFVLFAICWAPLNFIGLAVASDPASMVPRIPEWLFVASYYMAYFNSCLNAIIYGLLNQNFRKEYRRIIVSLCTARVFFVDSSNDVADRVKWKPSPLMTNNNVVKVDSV
Chain of M-phase inducer phosphatase 1 (Homo sapiens) (P30304 whole entry): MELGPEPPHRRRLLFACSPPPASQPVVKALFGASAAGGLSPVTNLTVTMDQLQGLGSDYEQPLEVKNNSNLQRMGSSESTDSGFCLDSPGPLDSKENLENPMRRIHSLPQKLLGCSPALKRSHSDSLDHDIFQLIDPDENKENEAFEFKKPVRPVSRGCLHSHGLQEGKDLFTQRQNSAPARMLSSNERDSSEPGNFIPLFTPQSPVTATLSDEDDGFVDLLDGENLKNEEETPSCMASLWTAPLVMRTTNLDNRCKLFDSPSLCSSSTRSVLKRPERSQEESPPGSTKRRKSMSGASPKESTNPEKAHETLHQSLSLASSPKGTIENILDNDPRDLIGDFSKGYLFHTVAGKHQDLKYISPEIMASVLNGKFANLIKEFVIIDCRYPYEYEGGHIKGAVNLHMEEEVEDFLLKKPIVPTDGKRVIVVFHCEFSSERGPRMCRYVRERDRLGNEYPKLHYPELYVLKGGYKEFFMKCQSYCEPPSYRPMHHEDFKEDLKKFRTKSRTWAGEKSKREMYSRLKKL
Chain of Transmembrane domain-containing protein TMIGD3 (Homo sapiens) (P0DMS9 whole entry, the tested form may be a part): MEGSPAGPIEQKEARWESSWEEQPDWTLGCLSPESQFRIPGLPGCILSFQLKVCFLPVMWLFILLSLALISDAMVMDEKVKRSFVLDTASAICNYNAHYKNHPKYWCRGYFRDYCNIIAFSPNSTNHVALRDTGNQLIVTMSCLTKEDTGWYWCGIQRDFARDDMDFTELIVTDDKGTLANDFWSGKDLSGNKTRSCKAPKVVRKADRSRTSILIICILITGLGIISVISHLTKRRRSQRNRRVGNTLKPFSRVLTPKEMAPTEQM
Chain of Prostaglandin E2 receptor EP3 subtype (Homo sapiens) (P43115 whole entry): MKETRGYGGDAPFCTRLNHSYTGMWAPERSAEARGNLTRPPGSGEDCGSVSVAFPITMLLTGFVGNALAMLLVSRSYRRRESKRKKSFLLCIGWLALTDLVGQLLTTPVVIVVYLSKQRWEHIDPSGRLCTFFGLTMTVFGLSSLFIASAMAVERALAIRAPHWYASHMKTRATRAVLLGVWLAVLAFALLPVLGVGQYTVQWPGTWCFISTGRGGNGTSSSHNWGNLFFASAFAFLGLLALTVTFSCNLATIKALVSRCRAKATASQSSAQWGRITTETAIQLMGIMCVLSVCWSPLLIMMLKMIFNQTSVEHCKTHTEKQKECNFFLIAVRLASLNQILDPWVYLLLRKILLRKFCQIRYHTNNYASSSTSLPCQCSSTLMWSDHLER
Chain of Polyunsaturated fatty acid 5-lipoxygenase (Homo sapiens) (P09917 whole entry): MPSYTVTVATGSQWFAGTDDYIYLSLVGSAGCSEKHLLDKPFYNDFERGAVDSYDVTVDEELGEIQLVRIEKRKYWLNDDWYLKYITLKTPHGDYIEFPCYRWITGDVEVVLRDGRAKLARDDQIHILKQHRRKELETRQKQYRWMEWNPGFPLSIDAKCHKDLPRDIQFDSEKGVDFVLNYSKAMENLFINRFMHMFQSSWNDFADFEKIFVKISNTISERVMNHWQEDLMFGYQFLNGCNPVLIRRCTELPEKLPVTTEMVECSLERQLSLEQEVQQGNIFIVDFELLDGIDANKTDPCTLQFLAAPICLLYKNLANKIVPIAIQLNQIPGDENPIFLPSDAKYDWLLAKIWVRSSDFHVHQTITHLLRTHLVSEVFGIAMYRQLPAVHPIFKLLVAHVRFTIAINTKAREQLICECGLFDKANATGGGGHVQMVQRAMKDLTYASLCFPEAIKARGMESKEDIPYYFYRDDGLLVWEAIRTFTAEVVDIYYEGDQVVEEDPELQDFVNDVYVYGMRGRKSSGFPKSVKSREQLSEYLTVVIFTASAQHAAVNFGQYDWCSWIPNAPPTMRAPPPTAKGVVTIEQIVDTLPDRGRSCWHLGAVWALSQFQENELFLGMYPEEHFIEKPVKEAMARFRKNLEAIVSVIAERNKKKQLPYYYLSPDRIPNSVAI
Chain of cGMP-dependent 3',5'-cyclic phosphodiesterase (Homo sapiens) (O00408 whole entry): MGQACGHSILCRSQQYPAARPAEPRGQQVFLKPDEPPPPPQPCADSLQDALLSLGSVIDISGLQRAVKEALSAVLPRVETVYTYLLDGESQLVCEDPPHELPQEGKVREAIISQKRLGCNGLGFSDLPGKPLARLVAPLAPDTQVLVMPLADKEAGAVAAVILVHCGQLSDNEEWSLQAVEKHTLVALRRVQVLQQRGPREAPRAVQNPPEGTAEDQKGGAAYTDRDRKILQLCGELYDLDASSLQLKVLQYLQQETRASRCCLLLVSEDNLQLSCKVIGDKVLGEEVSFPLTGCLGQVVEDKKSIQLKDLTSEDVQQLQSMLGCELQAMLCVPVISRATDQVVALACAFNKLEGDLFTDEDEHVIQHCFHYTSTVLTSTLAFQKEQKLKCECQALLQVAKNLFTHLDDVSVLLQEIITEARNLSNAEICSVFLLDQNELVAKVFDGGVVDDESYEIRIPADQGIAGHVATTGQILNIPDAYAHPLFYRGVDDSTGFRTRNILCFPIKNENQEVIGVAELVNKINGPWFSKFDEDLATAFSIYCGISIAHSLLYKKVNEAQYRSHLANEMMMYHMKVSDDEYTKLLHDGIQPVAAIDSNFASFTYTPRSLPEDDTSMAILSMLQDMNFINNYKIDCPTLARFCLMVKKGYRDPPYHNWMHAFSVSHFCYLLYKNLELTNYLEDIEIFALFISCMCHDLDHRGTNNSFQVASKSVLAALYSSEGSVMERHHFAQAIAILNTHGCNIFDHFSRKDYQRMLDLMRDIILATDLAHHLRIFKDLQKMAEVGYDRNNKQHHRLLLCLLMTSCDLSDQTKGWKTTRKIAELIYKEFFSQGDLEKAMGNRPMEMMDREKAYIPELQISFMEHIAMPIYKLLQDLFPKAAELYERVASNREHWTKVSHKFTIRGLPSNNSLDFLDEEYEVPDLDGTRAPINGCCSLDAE
Chain of D(2) dopamine receptor (Homo sapiens) (P14416 whole entry): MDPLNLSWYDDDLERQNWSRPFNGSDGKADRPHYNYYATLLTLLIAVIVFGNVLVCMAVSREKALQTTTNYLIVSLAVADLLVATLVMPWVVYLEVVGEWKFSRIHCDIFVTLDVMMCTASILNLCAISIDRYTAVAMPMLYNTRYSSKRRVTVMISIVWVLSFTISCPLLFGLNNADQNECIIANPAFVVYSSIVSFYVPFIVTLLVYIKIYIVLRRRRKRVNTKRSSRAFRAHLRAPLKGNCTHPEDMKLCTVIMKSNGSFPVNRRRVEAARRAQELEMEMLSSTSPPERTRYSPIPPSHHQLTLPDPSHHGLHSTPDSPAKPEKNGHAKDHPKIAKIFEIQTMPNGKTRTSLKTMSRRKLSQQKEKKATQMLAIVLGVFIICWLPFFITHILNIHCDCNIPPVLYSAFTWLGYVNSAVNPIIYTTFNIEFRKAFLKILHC
Chain of Type-2 angiotensin II receptor (Homo sapiens) (P50052 whole entry): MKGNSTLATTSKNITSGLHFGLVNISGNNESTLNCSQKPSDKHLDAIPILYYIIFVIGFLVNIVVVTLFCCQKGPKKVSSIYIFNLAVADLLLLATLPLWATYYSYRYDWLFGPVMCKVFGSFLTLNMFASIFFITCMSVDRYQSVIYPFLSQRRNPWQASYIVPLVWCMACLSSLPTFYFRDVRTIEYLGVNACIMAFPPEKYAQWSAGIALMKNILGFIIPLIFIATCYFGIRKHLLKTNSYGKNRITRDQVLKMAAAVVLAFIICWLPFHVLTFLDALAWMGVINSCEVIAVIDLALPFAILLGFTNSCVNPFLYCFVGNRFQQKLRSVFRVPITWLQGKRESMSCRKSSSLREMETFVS
Chain of Prostaglandin E2 receptor EP1 subtype (Homo sapiens) (P34995 whole entry): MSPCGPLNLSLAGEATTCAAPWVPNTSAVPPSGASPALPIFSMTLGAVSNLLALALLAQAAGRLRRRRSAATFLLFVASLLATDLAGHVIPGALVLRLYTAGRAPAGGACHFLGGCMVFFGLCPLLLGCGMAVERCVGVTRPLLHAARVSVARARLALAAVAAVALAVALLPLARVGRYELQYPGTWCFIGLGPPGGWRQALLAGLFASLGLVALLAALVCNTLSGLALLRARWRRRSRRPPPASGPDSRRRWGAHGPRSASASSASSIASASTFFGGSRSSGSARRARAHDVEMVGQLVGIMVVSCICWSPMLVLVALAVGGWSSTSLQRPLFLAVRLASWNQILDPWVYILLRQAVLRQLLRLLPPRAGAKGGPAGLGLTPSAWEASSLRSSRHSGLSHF
Chain of Calcitonin gene-related peptide 1 (Homo sapiens) (P06881 83-119 limits assumed): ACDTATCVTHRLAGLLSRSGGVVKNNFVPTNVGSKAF

CCCCCCNC(=O)Oc1cccc(-c2ccc([C@H](C)C(=O)O)cc2F)c1 was tested, and the Activity [1] was 0.9%, the IC50 [2] was 0.29 nM and the Activity [3] was -11.7%. It also gave an Activity [4] of -9.9%, an Activity [5] of 12.4% and an Activity (Homo sapiens [6]) of -19.3%. For the same compound, the Activity [7] was 18.8%, the Activity (Homo sapiens [8]) was -6.9% and the Activity [9] was 3.8%. For the same compound, the Activity [10] was -6.3%, the Activity [11] was -0.4% and the Activity [12] was 1.2%. The Activity [13] was -9.3%, the inhibition (Mus musculus) was “Active” and the Activity [14] was -1.4%. It also gave an Activity (Homo sapiens [15]) of 6.7%, an Activity [16] of -8.8% and an Activity [17] of -5%. For the same compound, the Activity [18] was 10.9%, the Activity [19] was 7% and the Activity [20] was -52%. For the same compound, the Activity [21] was 0.7%, the Activity [22] was -10.5% and the Activity (Homo sapiens [23]) was -7.7%. It also gave an Activity (Homo sapiens [24]) of 10.1% and an Activity [25] of -8%.
